Assay [1] can be described thus: conditioned fear test, Example 1 (freezing index 3 days after conditioning). The format is in vivo, rodents. Conditions: for p (freezing index, versus control group) / Freezing index / Freezing index, % vs witness: 3 days after conditioning, n = 10; for Freezing index: Mean ± SEM, witnesses 62.12 ± 9.93; for Freezing index, % vs witness: witnesses 100.00. The protocol:
(§1) The conditioned fear test in rodents is recognized as a relevant preclinical model for the study of post-traumatic stress disorders.
(§2) During this test, animals are placed for a 4.5-minute conditioning session in a square box with a stainless steel mesh floor connected to a shock generator.
(§3) A conditioned stimulus (CS) consisting of a sound (80 dB, 2800 Hz, 30 seconds) is presented twice (at 1.5 min and then at 3.5 min).
(§4) An unconditioned stimulus consisting of an electric shock to the paws is delivered at the end of each CS (2 seconds, 0.6 mA).
(§5) The animals were then subjected to memory test sessions of the stressful event on different days after the session of packaging. The sessions of test of memorization (duration of 6 min) comprise a first period of 3 minutes without none CS presentation (period CS−) followed by a second 3 minute period during which the CS is presented (period CS+).
(§6) The sound stimulus alone triggers conditioned fear behavior. In rodents, this behavior is manifested by a prostrate attitude, an immobility behavior (i.e. «freezing») that is distinguished from the animal's exploratory behavior when placed in an enclosure for a short period.
(§7) The analyzed data are the time of immobility during the period CS− and during the period CS+. The freezing index is defined as the difference in immobility time between the period with the sound stimulus and the period without the sound. Therefore, the higher this index, the greater the post-traumatic stress state.
(§8) The «sham» group received no shock. The treatments were administered immediately after the conditioning session, and then 30 minutes before each conditioned fear session (no shock, but with the conditioned stimulus).
(§9) This test measures the effect of stress and its environment and its memorization (i.e. extinction).

For assay [2] the following is noted: Azevedo et al., Neuropharmacology 164 (2020) 107912; cited from earlier work.
The nature of assay [3]: conditioned fear test, Example 3 (comparison with paroxetine). The format is in vivo, rodents. Conditions: for Freezing index Day 1 / Freezing index Day 3 / Freezing index Day 4: n = 10; for Freezing index Day 1: witnesses 53.3 ± 5.7; for Freezing index Day 3: witnesses 38.1 ± 8.7; for Freezing index Day 4: Day 4, treatment stopped after day 3, witnesses 56.2 ± 9.8. The procedure: as §1, §2, §3, §4, §5, §6, §7, §8, §9
The protocol is identical to that of Example 1 above. In this example, the conditioned fear sessions and the freezing measurement are carried out on days 1, 3 and 4 after the conditioning session. The treatment is stopped after day 3, so that during the 4th observation session, no treatment is administered.

Structures are written as SMILES. Structures can show the parent of a compound that is named as a salt.

For `CN1CCC(=C2c3ccccc3C=Cc3ccccc32)CC1` [Cyproheptadine, 4-(5-H-dibenzo[a,d]cyclohepten-5-ylidene)-1-methylpiperidine hydrochloride], in assay [1] (0.5 mg/kg), the “p (freezing index, versus control group)” value is given as “ns”; the Freezing index is 38.68 ± 5.84 s; the “Freezing index, % vs witness” value is listed as 62.28%.

For the compound `COc1ccccc1N1CCN(CCn2cnc3ccccc3c2=O)CC1` [ACH-000029], in assay [2], the “efficacy versus prazosin alone” value is listed as “more effective than prazosin alone”.

Take `COc1cc2nc(N3CCN(C(=O)c4ccco4)CC3)nc(N)c2cc1OC` [Prazosin, 2-[4-(2-furoyl)piperazin-1-yl]-6,7-dimethoxyquinazolin-4-amine]: in assay [1] (0.5 mg/kg), the “p (freezing index, versus control group)” value is given as “ns”; the Freezing index was 41.97 ± 5.82 s; the “Freezing index, % vs witness” value is on record as 67.57%. Besides, in assay [1] (1 mg/kg), the “p (freezing index, versus control group)” value is on record as “ns”; the Freezing index is 35.29 ± 12.22 s; the “Freezing index, % vs witness” value was found to be 56.80%. Besides, the “effect on post-traumatic stress syndrome, in words” value in assay [1] (Example 1 conclusion, conditioned fear test) was “does not allow the treatment of post-traumatic stress syndrome”.

Consider `Fc1ccc([C@@H]2CCNC[C@H]2COc2ccc3c(c2)OCO3)cc1` [Paroxetine], for which, in assay [3] (4 mg/kg), the “Freezing index Day 1” value was determined as 64.5 s, the “Freezing index Day 3” value is 44.3 s and the “Freezing index Day 4” value is 38.9 s. For the same compound, in assay [3] (8 mg/kg), the “Freezing index Day 1” value came out at 51.3 s, the “Freezing index Day 3” value was determined as 33.1 s and the “Freezing index Day 4” value came to 50.3 s. Also, in assay [3] (Example 3 conclusion), the “effect on the memory component and impact of the stressful event / anxious reaction, in words” value is recorded as “no significant effect”.

Source of the values: patent publication US20260294883A1, “PHARMACEUTICAL COMPOSITION FOR THE TREATMENT OF POST-TRAUMATIC STRESS SYNDROME” (KINNOV THERAPEUTICS, priority 2022, published 2026).
